Reference: patent publication US6897209B2, “Labelled factor XIIIa substrates” (GE Healthcare Limited, priority 1997, dated 2005)

Key:
Factor XIIIa = biological target: T1, Factor XIIIa (Homo sapiens, UniProt P00488); assay: Factor XIIIa dependency of incorporation (dimethylcasein uptake, normal vs Factor XIII deficient plasma); assay type: biochemical; settings: 1 KBq/ml, 60 minutes; uptake in normal plasma minus Factor XIII deficient plasma
T1 construct: Factor XIII is transformed into its active form Factor XIIIa by thrombin in the presence of calcium ions; from tissue; host or cells: human plasma
T1 sequence (P00488 39-732 limits assumed): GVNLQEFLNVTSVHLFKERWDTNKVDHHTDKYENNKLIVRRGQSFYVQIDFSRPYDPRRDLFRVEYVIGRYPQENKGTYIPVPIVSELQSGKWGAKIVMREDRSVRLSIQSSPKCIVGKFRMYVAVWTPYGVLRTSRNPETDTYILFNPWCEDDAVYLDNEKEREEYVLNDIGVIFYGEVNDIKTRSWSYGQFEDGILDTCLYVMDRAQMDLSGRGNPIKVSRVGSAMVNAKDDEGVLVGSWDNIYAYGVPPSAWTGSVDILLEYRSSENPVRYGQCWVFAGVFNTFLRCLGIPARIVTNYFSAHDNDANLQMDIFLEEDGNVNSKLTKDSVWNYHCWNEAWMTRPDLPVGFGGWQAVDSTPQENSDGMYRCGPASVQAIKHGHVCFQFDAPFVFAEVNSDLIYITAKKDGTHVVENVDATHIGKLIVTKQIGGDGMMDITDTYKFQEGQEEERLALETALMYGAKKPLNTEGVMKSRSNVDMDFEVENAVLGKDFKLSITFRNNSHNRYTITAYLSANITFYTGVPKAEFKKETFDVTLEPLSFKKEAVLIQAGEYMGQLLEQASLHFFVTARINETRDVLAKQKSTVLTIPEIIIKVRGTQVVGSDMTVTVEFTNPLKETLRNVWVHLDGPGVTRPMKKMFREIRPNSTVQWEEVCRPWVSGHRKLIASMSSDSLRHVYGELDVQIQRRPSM
Protocol: The assay was changed by replacing the mercaptoethanol with aprotinin at a final concentration of 2 μg/ml, and dimethylcasein (DMC) was used instead of casein.

human plasma clots [1] = biological target: T2, human plasma clots (Homo sapiens, UniProt P00488); assay: Incorporation into human plasma clots (in vitro plasma clot assay); assay type: biochemical
T2 construct: Factor XIII is transformed into its active form Factor XIIIa by thrombin in the presence of calcium ions; from tissue; host or cells: human plasma, clotted in vitro with thrombin and calcium chloride
T2 sequence (P00488 39-732): T1 sequence (P00488 39-732 limits assumed)

human plasma clots [2] = assay: as above; assay type: biochemical; settings: control vials without thrombin and calcium chloride, 60 minutes
[3] = Normal rat biodistribution; assay type: in vivo; settings: i.v., male Wistar rats, Mean±SD n=3
Method in brief: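 Male Wistar rats (100–150 g) received radiolabelled tracer (8 MBq/ml, 0.1–0.2 ml) i.v. and were dissected mostly at 2, 15, 30, 60 and 240 min. Tissue uptake as % ID, mean±SD, n=3; urine and faeces excretion collected in metabolism cages.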

[4] = system: clots induced in rat inferior vena cava; assay: Incorporation into clots induced in a rat model (rat inferior vena cava model); assay type: in vivo; settings: rat IVC model
Method in brief: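 Male Wistar rats (250-350 g) were anaesthetised with 15% urethane, and compounds were injected 5 min after clot induction. Animals were killed at 60 min, and clots (about 27 mg) and tissues were weighed and counted. Uptake was given as cpm/g clot by dose/g animal and as clot-to-background ratios.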

[5] = compound injected 5 min post-induction, clot removed after 60 min

CC(=NO)C(C)(C)NCC(C)(CNC(=O)C1CCC(CNC(=O)c2ccc(S(=O)(=O)NCCCCCN)cc2)CC1)CNC(C)(C)C(C)=NO (stereo not shown) [Compound 8, 3,3,6,9,9-pentamethyl-6-N[4-N-{(4-N-(5-aminopentyl)amidosulphonyl)benzoyl}aminomethylcyclohexylcarbonyl]aminomethyl-4,8-diazaundecane-2,10-dione dioxime]
% specific DMC casein uptake (Factor XIIIa): 45% | % specific uptake* (human plasma clots [1]; % retained with thrombin − % retained no thrombin): 18.4% | % retained in plasma clot assay (with thrombin) (human plasma clots [1]; human plasma with thrombin and calcium chloride, 60 minutes, ca. 20° C.): 23% | % retained in plasma clot assay (no thrombin) (human plasma clots [2]): 4.6% | % ID Blood ([3]; 2 min post-injection): 22.59 ± 1.44 % ID | % ID GI Tract ([3]; 2 min post-injection): 9.75 ± 1.2 % ID | % ID Heart ([3]; 2 min post-injection): 0.63 ± 0.17 % ID | % ID Kidney ([3]; 2 min post-injection): 4.56 ± 0.29 % ID | % ID Liver ([3]; 2 min post-injection): 19.6 ± 2.16 % ID | % ID Lung ([3]; 2 min post-injection): 1.61 ± 0.06 % ID | % ID Muscle ([3]; 2 min post-injection): 21.6 ± 2.08 % ID | % ID Urine ([3]; 2 min post-injection): 0.13 ± 0.06 % ID | % ID Blood ([3]; 15 min post-injection): 1.22 ± 0.06 % ID | % ID GI Tract ([3]; 15 min post-injection): 70.9 ± 1.3 % ID | % ID Heart ([3]; 15 min post-injection): 0.06 ± 0.04 % ID | % ID Kidney ([3]; 15 min post-injection): 1.9 ± 0.95 % ID | % ID Liver ([3]; 15 min post-injection): 10.0 ± 0.86 % ID | % ID Lung ([3]; 15 min post-injection): 0.21 ± 0.03 % ID | % ID Muscle ([3]; 15 min post-injection): 3.97 ± 0.56 % ID | % ID Urine ([3]; 15 min post-injection): 6.23 ± 1.23 % ID | % ID Blood ([3]; 30 min post-injection): 0.55 ± 0.19 % ID | % ID GI Tract ([3]; 30 min post-injection): 80.7 ± 2.4 % ID | % ID Kidney ([3]; 30 min post-injection): 1.8 ± 0.42 % ID | % ID Liver ([3]; 30 min post-injection): 4.53 ± 0.5 % ID | % ID Lung ([3]; 30 min post-injection): 0.1 ± 0.04 % ID | % ID Muscle ([3]; 30 min post-injection): 1.6 ± 0.82 % ID | % ID Urine ([3]; 30 min post-injection): 7.18 ± 1.24 % ID | % ID Blood ([3]; 60 min post-injection): 0.39 ± 0.05 % ID | % ID GI Tract ([3]; 60 min post-injection): 85.4 ± 0.12 % ID | % ID Heart ([3]; 60 min post-injection): 0.03 ± 0.01 % ID | % ID Kidney ([3]; 60 min post-injection): 1.06 ± 0.22 % ID | % ID Liver ([3]; 60 min post-injection): 2.63 ± 0.38 % ID | % ID Lung ([3]; 60 min post-injection): 0.08 ± 0.01 % ID | % ID Muscle ([3]; 60 min post-injection): 1.22 ± 0.28 % ID | % ID Urine ([3]; 60 min post-injection): 7.71 ± 0.49 % ID | % ID Blood ([3]; 240 min post-injection): 0.1 ± 0.02 % ID | % ID GI Tract ([3]; 240 min post-injection): 87.5 ± 2.8 % ID | % ID Heart ([3]; 240 min post-injection): 0.01 ± 0.02 % ID | % ID Kidney ([3]; 240 min post-injection): 0.85 ± 0.08 % ID | % ID Liver ([3]; 240 min post-injection): 1.39 ± 0.29 % ID | % ID Lung ([3]; 240 min post-injection): 0.05 ± 0.02 % ID | % ID Muscle ([3]; 240 min post-injection): 0.22 ± 0.31 % ID | % ID Urine ([3]; 240 min post-injection): 8.55 ± 2.76 % ID | Clot/Blood ([4]; 60 min): 4.1 | Clot/Heart ([4]; 60 min): 8.1 | Clot/Liver ([4]; 60 min): 0.40 | Clot/Lung ([4]; 60 min): 4.4 | % ID/g (clot uptake) [4, 5]: 0.17 ± 0.09 % ID/g | Relative conc (cpm/g of clot by dose/g animal) [4, 5]: 0.59 ± 0.31
